Data from PubChem BioAssay (NCI).
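Dose response: 5 concentrations. Exposure: 48 h. Format: 96-well plates. Endpoint: linear interpolation; highest concentration if not reached. The concentration for 50% growth inhibition is given as GI50. At the TGI there is no net growth.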

Assays:
Assay in all cases: NCI anticancer screen, dose series, 48 h
[1] = tested on: NCI-H226 lung
[2] = tested on: NCI-H23 lung
[3] = tested on: NCI-H460 lung
[4] = tested on: NCI-H522 lung
[5] = tested on: NCI/ADR-RES ovarian
[6] = tested on: OVCAR-3 ovarian
[7] = tested on: OVCAR-5 ovarian
[8] = tested on: OVCAR-8 ovarian
[9] = tested on: PC-3 prostate
[10] = tested on: RPMI-8226 leukemia
[11] = tested on: RXF 393 renal
[12] = tested on: SF-268 CNS
[13] = tested on: SF-295 CNS
[14] = tested on: SF-539 CNS
[15] = tested on: SK-MEL-2 melanoma
[16] = tested on: SK-MEL-28 melanoma
[17] = tested on: SK-MEL-5 melanoma
[18] = tested on: SK-OV-3 ovarian
[19] = tested on: SN12C renal
[20] = tested on: SNB-19 CNS
[21] = tested on: SNB-75 CNS
[22] = tested on: SR leukemia
[23] = tested on: SW-620 colon
[24] = tested on: T-47D breast
[25] = tested on: TK-10 renal
[26] = tested on: U251 CNS
[27] = tested on: UACC-257 melanoma
[28] = tested on: UACC-62 melanoma
[29] = tested on: UO-31 renal

Compound `O=C(CS(=O)(=O)c1oc(-c2ccc(Cl)cc2)nc1S(=O)(=O)c1ccccc1)N1CCCC1` has a GI50 [1] of 15.1 µM, a TGI [1] of 39 µM and a GI50 [2] of 11.4 µM. It also gave a TGI [2] of 26.8 µM, a GI50 [3] of 12.3 µM and a TGI [3] of 26.3 µM. The GI50 [4] was 1110 nM, the TGI [4] was 2530 nM and the GI50 [5] was 15.9 µM. The TGI [5] was 70.5 µM, the GI50 [6] was 1290 nM and the TGI [6] was 2710 nM. It also gave a GI50 [7] of 13.7 µM, a TGI [7] of 27.4 µM and a GI50 [8] of 11.2 µM. For the same compound, the TGI [8] was 33.2 µM, the GI50 [9] was 9.59 µM and the TGI [9] was 27.5 µM. It also gave a GI50 [10] of 2990 nM, a TGI [10] of over 100 µM and a GI50 [11] of 1360 nM. It also gave a TGI [11] of 2790 nM, a GI50 [12] of 14.9 µM and a TGI [12] of 43.2 µM. For the same compound, the GI50 [13] was 13.4 µM, the TGI [13] was 26.8 µM and the GI50 [14] was 1640 nM. It also gave a TGI [14] of 2990 nM, a GI50 [15] of 15 µM and a TGI [15] of 29 µM. The GI50 [16] was 3.58 µM, the TGI [16] was 12.5 µM and the GI50 [17] was 14.3 µM. For the same compound, the TGI [17] was 27.6 µM, the GI50 [18] was 18 µM and the TGI [18] was 33 µM. For the same compound, the GI50 [19] was 12 µM, the TGI [19] was 24.9 µM and the GI50 [20] was 16 µM. The TGI [20] was 30.5 µM, the GI50 [21] was 10.1 µM and the TGI [21] was 23 µM. It also gave a GI50 [22] of 2600 nM, a TGI [22] of over 100 µM and a GI50 [23] of 1060 nM. The TGI [23] was 2410 nM, the GI50 [24] was 1800 nM and the TGI [24] was 4.47 µM. The GI50 [25] was 1750 nM, the TGI [25] was 3.19 µM and the GI50 [26] was 15.9 µM. The TGI [26] was 29.8 µM, the GI50 [27] was 1880 nM and the TGI [27] was 3.62 µM. For the same compound, the GI50 [28] was 3.35 µM, the TGI [28] was 13.6 µM and the GI50 [29] was 1540 nM. For the same compound, the TGI [29] was 2960 nM.
